Test [1] concerns HIV strain containing the K103N mutation. Put plainly: Spread assay: inhibition of HIV replication (K103N mutant strain). It counts as cell-based. To be noted: Human immunodeficiency virus 1, read-out: Spread (K103N) CIC95. As to the method:
(§1) Assays for the inhibition of acute HIV-1 infection of T-lymphoid cells (alternatively referred to herein as the “spread assay”) were conducted in accordance with Vacca, J. P. et al., Proc. Natl. Acad. Sci. USA 1994, 91: 4096. The assays tested for inhibition of wild type HIV-1 and of HIV strains containing the Y181C or K103N mutation. […] The compounds of Examples 1 to 4 had CIC95 values of less than 10 micromolar in the assay employing the K103N mutant strain. […] Table C also reports the CIC95 values of the compounds of Examples 1-7, 9-13 and 15-29 obtained in the assays employing the Y181C mutant strain and the K103N mutant strain.

Test [2] has as its target T1, mutant HIV reverse transcriptase (Y181C mutation) (Human immunodeficiency virus type 1 group M subtype B, UniProt P04585, Y768C).
T1 construct: against mutant HIV reverse transcriptase; made in house
Kind of test: ECL assay for inhibition of mutant HIV reverse transcriptase (Y181C). The class given is biochemical. As to the method: (§2) 100 μL reaction mixtures were initiated with a combination of primer-template substrate ([…]) and dNTPs (0.6 μM dNTPs, 1.25 μM BrdUTP). The heterodimeric nucleic acid substrate was generated by annealing the DNA primer pD500 (described in Shaw-Reid et al., J. Biol. Chem., 278: 2777-2780; obtained from Integrated DNA Technologies) to t500, a 500 nucleotide RNA template created by in vitro transcription (see Shaw-Reid et al., J. Biol. Chem., 278: 2777-2780). After 1 hour incubation at 37° C., reactions were quenched by 10 μL of 1 N NaOH. Microtiter plates were incubated for an additional 30 minutes at room temperature and then neutralized with 10 μL of 1 N HCl. A mixture of detection buffer containing ruthenylated anti-BrdU antibody and streptavidin coated magnetic beads were added to the plate and incubated at room temperature for 1.5 hours prior to quantification via electrochemiluminescence instrument.
(§3) Analogous assays were conducted substituting mutant HIV strains to determine the in vitro inhibition of compounds of the present invention against mutant HIV reverse transcriptase. In one strain the reverse transcriptase has the Y181C mutation and in the other strain the reverse transcriptase has the K103N mutation. The mutations were generated with the QUIKCHANGE site-directed mutagenesis kit (Stratagene).

The target of test [3] is T2, mutant HIV reverse transcriptase (K103N mutation) (Human immunodeficiency virus type 1 group M subtype B, UniProt P04585, K690N).
T2 construct: against mutant HIV reverse transcriptase; made in house
Put plainly: ECL assay for inhibition of mutant HIV reverse transcriptase (K103N). It counts as biochemical. The procedure:
as §2, §3

In test [4] the target is HIV-1 RT enzyme (wild-type) (Human immunodeficiency virus type 1 group M subtype B, UniProt P04585). Kind of test: ECL assay for inhibition of HIV reverse transcriptase (WT). The class given is biochemical. The procedure:
as §2

The subject of the next test is wild type HIV-1. Put plainly: Spread assay: inhibition of acute HIV-1 infection of T-lymphoid cells (WT). To be noted: Human immunodeficiency virus 1, T-lymphoid; wild-type strain; 10% FBS; read-out: Spread (WT) CIC95. It counts as cell-based. The procedure: as §1
For test [5], the system named is HIV strain containing the Y181C mutation. Put plainly: Spread assay: inhibition of HIV replication (Y181C mutant strain). The class given is cell-based. To be noted: Human immunodeficiency virus 1, read-out: Spread (Y181C) CIC95. The procedure:
as §1

The mark [6] stands for this setting: Y181C mutant RT, read-out: ECL Assay (Y181C) IC50.
Where [7] appears, read: K103N mutant RT, read-out: ECL Assay (K103N) IC50.

The results in this text go back to patent US7781454B2 (priority 2006, dated 2010).

Where a name gives a salt, the structure may show the parent alone. Read-outs that look alike come from different tables or passages of the source.

As to `Cc1ccn2c(Cc3n[nH]c4ncccc34)nnc2c1Oc1cc(Cl)cc(C#N)c1` [Example 26, 3-chloro-5-{[7-methyl-3-(1H-pyrazolo[3,4-b]pyridin-3-ylmethyl)[1,2,4]triazolo[4,3-a]pyridin-8-yl]oxy}benzonitrile trifluoroacetate], the IC95 (in test [1]; in the test on wild type HIV-1) was > 833 nM in each case. Besides, the results for the IC50 in test [2], in test [3] and in test [4] were 1200 nM, 820 nM and 220 nM, respectively.
With `Cc1ccn2c(Cc3n[nH]c4ncccc34)ncc2c1Oc1cc(Cl)cc(C#N)c1` [Example 25, 3-chloro-5-{[7-methyl-3-(1H-pyrazolo[3,4-b]pyridin-3-ylmethyl)imidazo[1,5-a]pyridin-8-yl]oxy}benzonitrile trifluoroacetate], the values for the IC95 (in test [1]; in the test on wild type HIV-1) were 362 nM and 115 nM, respectively. The IC50 turned out to be 33 nM in test [2], 37 nM in test [3] and 20 nM in test [4].
For `N#Cc1cc(Cl)cc(Oc2c(Cl)ccc3c2cnn3Cc2n[nH]c3c2ccc[n+]3[O-])c1` [Example 5, 3-chloro-5-({5-chloro-1-[(7-oxido-1H-pyrazolo[3,4-b]pyridin-3-yl)methyl]-1H-indazol-4-yl}oxy)benzonitrile], the IC95 is 105 nM in test [5], 23 nM in test [1] and 11 nM with wild type HIV-1. The concentration for half-maximal inhibition (IC50) in test [2] (setting [6]) was determined as 1.8 nM; in test [3] (setting [7]), 1.3 nM; in test [4], 0.62 nM.
For the molecule `N#Cc1cc(Cl)cc(Oc2c(Cl)ccc3c2nnn3Cc2nnc(-c3ccccc3)o2)c1` [Example 23, 3-chloro-5-({5-chloro-1-[(5-phenyl-1,3,4-oxadiazol-2-yl)methyl]-1H-1,2,3-benzotriazol-4-yl}oxy)benzonitrile], the IC95 is > 833 nM in test [1] and 96 nM in the test with wild type HIV-1. In addition, the IC50 in test [2] (setting [6]) came out at 3.4 nM; in test [3] (setting [7]), 10 nM; in test [4] it was 6.1 nM.
On to `N#Cc1cc(Cl)cc(Oc2c(Cl)ccc3c2nnn3CC(=O)OCc2ccccc2)c1` [Example 15], for which the IC95 (in test [1]; with wild type HIV-1) was > 833 nM throughout. The IC50 is 1.5 nM in test [2] (setting [6]), 12 nM in test [3] (setting [7]) and 2.4 nM in test [4].
For `NCc1cc(Cl)cc(Oc2c(Cl)ccc3c2nnn3Cc2n[nH]c3ncccc23)c1Cl` [Example 21, 1-(2,5-dichloro-3-{[5-chloro-1-(1H-pyrazolo[3,4-b]pyridin-3-ylmethyl)-1H-1,2,3-benzotriazol-4-yl]oxy}phenyl)methanamine], the IC95 turned out to be 417 nM in test [5], 192 nM in test [1] and 58 nM in the test on wild type HIV-1. In addition, the IC50 in test [3] (setting [7]) was determined as 4.2 nM.
On to `N#Cc1cc(Cl)cc(Oc2c(Cl)ccc3c2cnn3Cc2n[nH]c3ncccc23)c1` [Example 1, 3-Chloro-5-{[5-chloro-1-(1H-pyrazolo[3,4-b]pyridin-3-ylmethyl)-1H-indazol-4-yl]oxy}benzonitrile], for which the IC95 was found to be 69 nM in test [5], 17 nM in test [1] and 13 nM in the test on wild type HIV-1. The IC50 turned out to be 0.6 nM in test [2] (setting [6]), 0.57 nM in test [3] (setting [7]) and 0.35 nM in test [4].
`N#Cc1cc(Cl)cc(Oc2c(Cl)ccc3nn(Cc4nnc(-c5ccccc5)o4)nc23)c1` [Example 24, 3-chloro-5-({5-chloro-2-[(5-phenyl-1,3,4-oxadiazol-2-yl)methyl]-2H-1,2,3-benzotriazol-4-yl}oxy)benzonitrile]: the IC95 (in test [1]; with wild type HIV-1) was > 833 nM throughout. Besides, the IC50 amounted to 47 nM in test [2] (setting [6]), 150 nM in test [3] (setting [7]) and 46 nM in test [4].
On to `N#Cc1cc(Cl)cc(Oc2c(Cl)ccc3c2nnn3CC(=O)N2CCCC(C(N)=O)C2)c1` (centres unmarked) [Example 16, 1-{[5-chloro-4-(3-chloro-5-cyanophenoxy)-1H-1,2,3-benzotriazol-1-yl]acetyl}piperidine-3-carboxamide], for which the IC95 (in test [1]; in the test with wild type HIV-1) was > 833 nM throughout. The results for the half-inhibitory concentration (IC50) in test [2] (setting [6]), in test [3] (setting [7]) and in test [4] were 790 nM, > 1800 nM and 1100 nM, respectively.
`N#Cc1cc(Cl)cc(Oc2c(Cl)ccc3nn(Cc4n[nH]c5ncccc45)nc23)c1Cl` [Example 20, 2,5-dichloro-3-{[5-chloro-2-(1H-pyrazolo[3,4-b]pyridin-3-ylmethyl)-2H-1,2,3-benzotriazol-4-yl]oxy}benzonitrile]: the IC95 in test [1] is > 833 nM; with wild type HIV-1, 420 nM. In addition, the concentration for half-maximal inhibition (IC50) in test [2] (setting [6]) was 2.5 nM; in test [3] (setting [7]), 55 nM; in test [4], 2.1 nM.
On the same counts, the results for `N#Cc1cc(Cl)cc(Oc2c(Cl)ccc3c2nnn3Cc2n[nH]c3nc(N)ccc23)c1Cl` [Example 22, 3-({1-[(6-amino-1H-pyrazolo[3,4-b]pyridin-3-yl)methyl]-5-chloro-1H-1,2,3-benzotriazol-4-yl}oxy)-2,5-dichlorobenzonitrile] are 9 nM, 4 nM, 0.79 nM, 0.8 nM and 0.52 nM.
For the molecule `N#Cc1cc(Cl)cc(Oc2c(Cl)ccc3c2nnn3Cc2n[nH]c3ncccc23)c1Cl` [Example 19, 2,5-dichloro-3-{[5-chloro-1-(1H-pyrazolo[3,4-b]pyridin-3-ylmethyl)-1H-1,2,3-benzotriazol-4-yl]oxy}benzonitrile], the IC95 in test [5] was found to be 27 nM; in test [1], 15 nM; in the test with wild type HIV-1, 7 nM. Further, the values for the IC50 in test [2] (setting [6]), in test [3] (setting [7]) and in test [4] were 0.77 nM, 0.93 nM and 0.57 nM, respectively.
As for `N#Cc1cc(Cl)cc(Oc2c(Cl)ccc3c2nnn3CC(=O)c2cccnc2)c1` [Example 11, 3-chloro-5-{[5-chloro-1-(2-oxo-2-pyridin-3-ylethyl)-1H-1,2,3-benzotriazol-4-yl]oxy}benzonitrile], the IC95 stood at 433 nM in test [1] and 381 nM with wild type HIV-1. The IC50 in test [2] (setting [6]) came to 30 nM; in test [3] (setting [7]), 52 nM; in test [4], 18 nM.
On the same counts, the results for `N#Cc1cc(Cl)cc(Oc2c(Cl)ccc3c2c(Cl)nn3Cc2n[nH]c3ncccc23)c1` [Example 2, 3-Chloro-5-{[3,5-dichloro-1-(1H-pyrazolo[3,4-b]pyridin-3-ylmethyl)-1H-indazol-4-yl]oxy}benzonitrile] are 2090 nM, 521 nM, 25 nM, 12 nM and 3.9 nM.
The corresponding values for `N#Cc1cc(Cl)cc(Oc2c(Cl)ccc3c2CCCN3Cc2n[nH]c3ncccc23)c1` [Example 27, 3-chloro-5-{[6-chloro-1-(1H-pyrazolo[3,4-b]pyridine-3-ylmethyl)-1,2,3,4-tetrahydroquinolin-5-yl]oxy}benzonitrile] are 7730 nM, 3280 nM, 160 nM, 640 nM and 160 nM.
On the same counts, the results for `N#Cc1cc(Cl)cc(Oc2c(Cl)ccc3c2nnn3CCO)c1` [Example 28, 3-chloro-5-{[5-chloro-1-(2-hydroxyethyl)-1H-1,2,3-benzotriazol-4-yl]oxy}benzonitrile] are > 833 nM, 557 nM, 77 nM, 210 nM and 68 nM.
As to `N#Cc1cc(C#N)cc(Oc2c(Cl)ccc3c2nnn3Cc2n[nH]c3ncccc23)c1` [Example 29, 5-{[5-chloro-1-(1H-pyrazolo[3,4-b]pyridin-3-ylmethyl)-1H-1,2,3-benzotriazol-4-yl]oxy}isophthalonitrile], the IC95 was 3.1 nM in test [1] and 2.5 nM with wild type HIV-1. The IC50 in test [2] (setting [6]) is 1.3 nM; in test [3] (setting [7]), 1.4 nM; in test [4], 0.9 nM.
Take `CN(Cc1ccccc1Cl)C(=O)Cn1nnc2c(Oc3cc(Cl)cc(C#N)c3)c(Cl)ccc21` [Example 9, N-(2-chlorobenzyl)-2-[5-chloro-4-(3-chloro-5-cyanophenoxy)-1H-1,2,3-benzotriazol-1-yl]-N-methylacetamide]: the IC95 is 807 nM in test [1] and 770 nM in the test on wild type HIV-1. The IC50 was found to be 137 nM in test [2] (setting [6]), 74 nM in test [3] (setting [7]) and 61 nM in test [4].

The term IC50 denotes the concentration that gives 50% inhibition.
